In BigSolDB 2.1:

O=C(O)c1ccc(C(=O)O)o1
solubility (mole fraction)
Settings | in MIBK | in acetic acid | in acetonitrile | in isobutanol | in methanol | in methyl acetate | in n-butanol | in water
313.15 K | 0.000136 | 0.000235 | 6.11e-05 | 0.00168 | 0.00428 | 7.78e-05 | 0.00266 | 0.000203
318.15 K | 0.000184 | 0.000272 | 9.15e-05 | 0.00198 | 0.00489 | 0.000113 | 0.00302 | 0.000225
323.15 K | 0.000253 | 0.000331 | 0.000112 | 0.0023 | 0.0054 | 0.000164 | 0.00346 | 0.000283
328.15 K | 0.000296 | 0.000404 | 0.000136 | 0.0027 | 0.0068 | 0.000238 | 0.00408 | 0.00037
333.15 K | 0.000338 | 0.000478 | 0.000166 | 0.00323 | 0.00801 | 0.000285 | 0.00469 | 0.000421
338.15 K | 0.000429 | 0.000555 | 0.000212 | 0.00372 | 0.00869 | 0.000377 | 0.00524 | 0.000465
343.15 K | 0.000536 | 0.000717 | 0.000248 | 0.00412 | 0.00894 | 0.000464 | 0.00572 | 0.000598
348.15 K | 0.000631 | 0.00082 | 0.000278 | 0.00482 | – | 0.000549 | 0.00663 | 0.000641
353.15 K | 0.000666 | 0.000965 | 0.000341 | 0.00548 | – | 0.00062 | 0.00741 | 0.000781
358.15 K | 0.000721 | 0.00115 | 0.000409 | 0.00607 | – | 0.000659 | 0.0082 | 0.000908
363.15 K | 0.000863 | 0.00134 | 0.000487 | 0.00682 | – | 0.000721 | 0.00916 | 0.0011
